What was measured:
[1] = Inhibition of citric acid-mediated enamel surface softening (Vickers microhardness/microindentation); set-up: species or system human; conditions: Example 1; for enamel surface microhardness (baseline = 100): ± = standard deviation; for levels of protection compared among SDP, PDEP and fluoride positive control: at 10 and 20 minutes; for levels of protection compared among SDP, PDEP and fluoride positive control / protection versus the fluoride positive control: in words; for protection versus the fluoride positive control: at 30 minutes
Description: The first stage of dental erosion and acid wear involves demineralisation of the hard tissue surface and consequent surface softening. The present study employed a Duramin Microhardness Tester to assess the protective effect of SDP and PDEP against an erosive challenge based on citric acid.
Sound human enamel specimens were polished with 2400 grit abrasive and subsequently immersed in an aqueous solution of the specified treatment at pH 7 for 2 minutes under ambient conditions, with agitation. After rinsing with deionised water, the enamel specimens were exposed to an erosive challenge comprising an aqueous solution of 0.30% w/w citric acid monohydrate, pH 3.6. The extent of acid damage was assessed by monitoring the decrease in enamel surface hardness as a function of acid exposure time. The microhardness value for each specimen at a given time point was based on the mean of 6 indents. Each treatment leg employed 3 enamel specimens, which were randomised according to baseline microhardness. A 300 ppm fluoride ion solution (from NaF) was employed as the positive control; deionised water was employed as the negative control. The protective effects of combination treatment solutions i.e. 0.50% alkyl phosphate plus 300 ppm fluoride, were also investigated.
The actives were tested as aqueous solutions at 0.50% w/w and pH 7.

[2] = Enamel solubility reduction (FDA ESR model #33 modified), citric acid challenge; conditions: for Enamel Solubility Reduction (%): 1.0% w/w citric acid monohydrate pH 3.75, alkyl phosphates 0.50% w/w aqueous, pH 7, normalised to water negative control
Description: (§1) FDA caries monograph enamel solubility reduction (ESR) model #33 is designed to evaluate in vitro the utility of fluoride toothpastes to protect enamel against a bacterial (lactic) acid challenge. In brief, enamel specimens are placed in a lactic acid challenge (pH 4.5) and the solubility determined by spectrophotometric analysis of released phosphate. Specimens are then placed in the relevant treatment solution derived from the supernatant of a 1:3 slurry of the toothpaste in deionised water. After 5 minutes the specimens are removed, rinsed, and placed in a fresh lactic acid challenge. The enamel solubility is determined once again, and the ESR value calculated as a percentage reduction relative to the baseline solubility.
The methodology described above was modified in order to evaluate the ability of putative anti-erosion actives to confer protection against a more aggressive dietary acid challenge. […] The alkyl phosphates were tested as 0.50% w/w aqueous solutions at pH 7. Fluoride was included as a positive control, and Crest Cavity Protection was also run as an additional control standard.

[3] = Enamel solubility reduction (FDA ESR model #33 modified), phosphoric acid challenge
Description: as §1
FDA ESR Model #33 was modified by replacing lactic acid with phosphoric acid, a dietary acid most commonly associated with cola drinks. Determination of enamel solubility in this study was based on analysis of the released calcium to prevent interference from the acid challenge.

[4] = 10 mins acid (0.30% w/w citric acid monohydrate, pH 3.6) after 2 min treatment at pH 7
[5] = 20 mins acid (0.30% w/w citric acid monohydrate, pH 3.6) after 2 min treatment at pH 7
[6] = 30 mins acid (0.30% w/w citric acid monohydrate, pH 3.6) after 2 min treatment at pH 7

Compound	enamel surface microhardness (baseline = 100) [1, 4]	enamel surface microhardness (baseline = 100) [1, 5]	enamel surface microhardness (baseline = 100) [1, 6]	levels of protection compared among SDP, PDEP and fluoride positive control [1]	protection versus the fluoride positive control [1]	Enamel Solubility Reduction (%) [2]	directional comparison with fluoride ([2]; citric acid ESR, in words)	statistical comparison with the 300 ppm fluoride control ([2]; citric acid ESR, in words)	protection against the phosphoric acid challenge compared to the negative water control ([3]; in words)	acid protection versus the 300 ppm fluoride ([3]; phosphoric acid ESR, in words)	Enamel Solubility Reduction (%) ([3]; phosphoric acid challenge, solubility from released calcium)
CCCCCCCCCCCCOP(=O)([O-])[O-].[Na+].[Na+] [SDP, sodium dodecyl phosphate]	94 ± 1.7	84 ± 4.0	80 ± 2.0	comparable	statistically superior	36.76%	directionally superior	not statistically different	statistically significant protection	statistically superior	16.02%
potassium dodecyl ether (1EO) phosphate [PDEP]	92.5 ± 1.8	82.5 ± 2.7	78 ± 2.8	comparable	statistically superior	17.77%		statistically inferior			

— patent US20100316579A1, “NOVEL USE OF ALKYL PHOSPHATE ESTERS” (Glaxo Group Limited, priority 2006, published 2010)
